“And” between values parts separate entries of the source, which are not always exact repeats. Equal values may be shown once. The source made the active and inactive calls.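 How the source made its calls: active means compounds giving half or more protection of infected cells from virus-caused growth loss, again on retest; inactive means the rest.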 Where a SMILES comes first, the peptide text is derived from it.
Test system: CEM cells HIV-1 protection, formazan growth assay
Experiment: NCI AIDS Antiviral Assay
Conditions: for IC50: measured here: growth of uninfected CEM cells
Outline: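 Soluble formazan readout of cell growth; CEM cells ± HIV-1; 5 drug concs. ≥50% protection → retest; ≥50% again = moderately active; reproducible 100% = confirmed active.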

Structure (SMILES) | EC50 | IC50 [µM] | outcome
CCCCCCC1OC(C(=O)OCCCC)C(C(=O)OCCCC)O1 (stereo not drawn) | > 200 µM | > 200 | –
O=C1NC23CC=CCC12CCCCCC3 (stereo not drawn) | > 389 µM | – | –
O=C(O)C[S][Bi]([S]CC(=O)O)[S]CC(=O)O | – | – | inactive
CNC(=O)N(Cc1ccccc1)C[C@@H]1CCCN1C(C)=O | > 200 µM | > 200 | –
COc1ccccc1NC(=O)CC(=O)NN | > 200 µM | > 200 | –
Cc1nnc(N/N=C(/C(=O)C(C#N)c2ccc(Cl)cc2)C(C#N)c2ccc(Cl)cc2)n1N (stereo not drawn) | > 537 µM | 91.2 | –
C=C1CCC2C(C)(CO)C(O)CCC2(C)C1CC(O)C1=CCOC1=O (stereo not drawn) | – | – | inactive
c1ccc(Nc2nnc(CSc3nc(-c4ccccc4)c(-c4ccccc4)[nH]3)s2)cc1 | > 81.3 µM | 72.4 | –
CC(C)OC(=O)NCCn1cc(-c2ccccc2)nn1 | > 200 µM | > 200 | –
CC1(C#N)N(C(=O)c2ccccc2)c2ccccc2N1C(=O)c1ccccc1 | – | – | inactive
O=C1/C(=C/c2ccc(O)cc2)CCCC1CN1CCCCC1 (stereo not drawn) | > 2 µM | 1.86 | –
Cc1cc(=O)oc2ccccc12 | > 813 µM | > 813 | –
Cn1cc([N+](=O)[O-])cc1C(=O)Nc1cc(C(=O)Nc2ccc(S(=O)(=O)O)c3cc(S(=O)(=O)O)ccc23)n(C)c1 | > 398 µM | 178 | –
Cc1ccc2c(c1)nc1sc(C)cc(=O)n12 | > 200 µM | > 200 | –
N#C/C(=C(/c1ccccc1)c1ccccn1)c1ccc(Cl)cc1 | > 2 µM | 1 | –
O=[N+]([O-])c1nccn1CC(O)CF (stereo not drawn) | > 468 µM | > 468 | –
COc1ccccc1N1C(=O)CC(=O)N(C(=O)CCCCCCCCC(=O)N2C(=O)CC(=O)N(c3ccccc3OC)C2=S)C1=S | > 200 µM | 95.5 | –
C=CCN1C(N)=C(C#N)C(C#N)(C#N)C1CCC (stereo not drawn) | > 200 µM | 151 | –
Cc1cc(Br)c2nsnc2c1[N+](=O)[O-] | > 26.3 µM | 2.57 | –
NC(=O)N/N=C1/CCCCC1c1ccccc1 (stereo not drawn) | > 407 µM | > 407 | –
Clc1ccc(C[P+](c2ccccc2)(c2ccccc2)c2ccccc2)c(Cl)c1 | > 200 µM | 1.48 | –
CCOc1ccc(N=Nc2ccc3cc(/C(C)=N/NC(=O)/C(C#N)=C\c4ccc(N(CCC#N)CCC#N)cc4)c(=O)oc3c2)cc1 | > 200 µM | > 200 | –
N#CC(N)=Nc1ccccc1 | > 617 µM | 347 | –

Structure (SMILES) | EC50 | IC50 [µM] | outcome
N=C(N)c1csc([C@@H]2O[C@H](CO)[C@@H](O)[C@H]2O)n1 | – | – | inactive
Cc1cccc(N=NC(=O)NNc2cccc(C)c2C)c1C | > 200 µM | 70.8 | –
CCOC(=O)Cn1c(=O)n(C)c(=O)c2[nH]cnc21 | > 1000 µM | > 1000 | –
CC(=O)c1ccc2c(c1)CC1(C2)Cc2ccc3c(c2C1=O)CCC3 (stereo not drawn) | > 200 µM | 33.1 | –
C[Si](C)(C)OC=C1CCCCC1 | > 200 µM | > 200 | –
N#Cc1nn(-c2ccc(Cl)cc2)c(N)c2c(=N)n3nc(-c4ccccc4)cc3nc12 | > 9.12 µM | > 9.12 | –
Cn1nc2ccc3nccc(NCCNCCO)c3c2n1 | > 871 µM | 3.89 | –
CCOC(=O)C(Cc1ccccc1)C(=O)OCC | > 105 µM | > 105 | –
CCOc1ccccc1N=C(NC(=O)CC)SC | > 18.2 µM | > 18.2 | –
NNC(=O)/C(NC(=O)c1ccccc1)=C(\N)c1ccc(Cl)cc1 | > 282 µM | 162 | –
COc1cccc(/C=C/C(=O)c2ccccc2)c1O | 14.5 µM | 112 | –
CCOC(=O)c1c(SCC#N)n(-c2ccccc2)c(=S)n(-c2ccccc2)c1=O | > 200 µM | 13.8 | –
NC1c2c(Cl)sc(Cl)c2C(=O)C1O (stereo not drawn) | > 200 µM | 35.5 | –
C/C(=N\NC(N)=S)c1ccc(/C(C)=N/NC(N)=S)cc1 | – | – | inactive
Cc1cc(=O)oc2c1c(C)nn2-c1cccc(Cl)c1 | > 95.5 µM | 89.1 | –
O=C1CCCN1CCCN=c1cc2n(-c3ccc(Cl)cc3)c3ccccc3nc-2cc1Nc1ccc(Cl)cc1 | – | – | inactive
CC(C)CC(NC(=O)C(Cc1ccc(O)cc1)NC(=O)C(CO)NC(=O)C(CCC(=O)O)NC(=O)C1CCCN1C(=O)C(CC(C)C)NC(=O)C(C)NC(=O)CNC(=O)C(N)CCC(=O)O)C(=O)NC(Cc1c[nH]c2ccccc12)C(=O)O (stereo not drawn) (H-EGALPESYLW-OH; configuration not given here) | – | – | inactive
COc1cccc(NC(=O)CC(=O)NNCC(=O)Nc2nnc(-c3ccc(N(CCC#N)S(=O)(=O)c4ccccc4)cc3)s2)c1 | > 77.6 µM | 66.1 | –
CCC1(CC=C(C)C)Oc2ccccc2-n2cccc2C1=O (stereo not drawn) | – | – | active
O=C1O[C@@H](c2ccccc2)C[C@@H]1CN1CCOCC1 | – | – | inactive
S=C1CC(c2ccccc2)Sc2ccc(Cl)cc2N1 (stereo not drawn) | > 200 µM | 34.7 | –
CCOC(=O)C1C(=O)CC(C)(O)C(C(=O)OCC)C1c1ccc(N(C)C)cc1 (stereo not drawn) | > 200 µM | > 200 | –
CC1=C/C(=C(\c2cc(C)c(O)c(C(=O)O)c2)c2c(Cl)cccc2Cl)C=C(C(=O)O)C1=O | – | – | inactive

Structure (SMILES) | EC50 | IC50 [µM] | outcome
COC1(c2cccs2)OC(=O)c2c([N+](=O)[O-])cccc21 (stereo not drawn) | – | – | inactive
CCNC(=O)NNc1ncnc2c1c(-c1ccc(Cl)cc1)cn2-c1ccc(C)cc1 | > 200 µM | 35.5 | –
Cc1ccc(N=NC2S/C(=C(\C#N)c3nc4ccccc4[nH]3)N(c3ccccc3)C2=O)cc1 (stereo not drawn) | > 2.24 µM | > 2.24 | –
CO[C@@H]1C2=CC=CC=C[C@H]2n2c(=O)n(-c3ccccc3)c(=O)n21 | > 162 µM | 81.3 | –
CC(=O)CC1=C(OC(C)C)C2(OCCO2)C1O (stereo not drawn) | > 200 µM | > 200 | –
Cc1cccc(NC(=S)NNC(=O)c2cc(-c3ccccc3)nc3ccccc23)c1 | > 200 µM | 24 | –
COC(=O)c1cccc2cccc(C(=O)Nc3ccc(C)cc3C)c12 | > 2.24 µM | > 2.24 | –
O=C(NC(Cc1c[nH]c2ccccc12)C(=O)O)/C(=C/c1ccccc1O)NC(=O)c1ccccc1 (stereo not drawn) | > 200 µM | > 200 | –
O=C1OC(/C=C/c2ccccc2)C(=O)C1=O (stereo not drawn) | > 1150 µM | > 1150 | –
O=C1CCC(=O)c2sccc2N1 | > 1380 µM | > 1380 | –
Cc1c(C#N)c(N)n(C2OCC(O)C(O)C2O)c(=S)c1C#N (stereo not drawn) | – | – | inactive
CC(C)S(=O)(=O)n1c(N)nc2ccc(/C(=N/O)c3ccccc3)cc21 | 5.01 µM | 9.77 | –
C=CCNC1=C(C(=O)OCC)C(=O)CO1 | > 1170 µM | > 1170 | –
CCC1(N=[N+]=[N-])C(=O)Nc2cc(C)ccc2C1=O (stereo not drawn) | > 200 µM | > 100 | –
COc1ccc(C(=O)/C(Br)=C/C(=O)O)cc1 | > 427 µM | 22.9 | –
Brc1ccc(OCc2ccccc2)c2ccccc12 | > 200 µM | 63.1 | –
Oc1cc(O)c2c(c1)O[C@H](c1cc(O)c(O)c(O)c1)[C@@H](O)C2 | > 200 µM | 0.603 | –
CSC1=NCc2c(sc3c2CCCC3)N1 | > 200 µM | 35.5 | –
COC(=O)CCC1=NOC(CC2CC(CCC(=O)OC)=NO2)C1 (stereo not drawn) | – | – | inactive
CC1(C)CNC[C@](C)(OCCCO[C@@]2(C)CNCC(C)(C)NC2=O)C(=O)N1 | > 200 µM | > 200 | –
Cc1cc(N(CCC#N)CCC#N)ccc1/C=C1/CN(N2C(=O)/C(=C/c3ccc(N(CCC#N)CCC#N)cc3C)N=C2c2ccccc2)C(c2ccccc2)=N1 | > 5.01 µM | > 5.01 | –
O=c1[nH]cnc2c1ncn2C1C=CC(CO)CC1 (stereo not drawn) | > 200 µM | > 200 | –
O=c1c2cc([N+](=O)[O-])ccc2[nH]n1Cc1ccccc1Cl | > 200 µM | 41.7 | –

Structure (SMILES) | EC50 | IC50 [µM] | outcome
COc1ccc(-n2c(Cn3nnc(-c4cccnc4)n3)nn(C3OC(COC(=O)c4ccccc4)C(OC(=O)c4ccccc4)C3OC(=O)c3ccccc3)c2=S)cc1 (stereo not drawn) | > 100 µM | > 100 | –
Nc1ncc2ncn(C3CCC(CO)O3)c2n1 (stereo not drawn) | > 200 µM | > 200 | –
CSC(SC)=C(C#N)C(=O)Nc1ccc(Cl)cc1 | > 14.8 µM | 5.37 | –
Cc1cc(Cl)ccc1NC(=O)C(=O)Cc1nc2ccccc2o1 | > 11.5 µM | > 11.5 | –
N#Cc1ccc(Oc2nc3ccccc3nc2C(=O)O)cc1 | > 200 µM | > 200 | –
COc1ccc([C@H]2C=[N+]([O-])O[C@H](OC3CCCC3)[C@@H]2OC(C)=O)cc1OC | > 200 µM | 11.2 | –
Cc1cc(C)c(C(=O)C(C)C(c2ccccc2)c2ccc(Cl)cc2)c(C)c1 (stereo not drawn) | > 26.3 µM | > 26.3 | –
Cc1nc2cc(N)c(Cl)cc2[nH]1 | > 200 µM | > 200 | –
O=C(O)CN(c1ccccc1)S(=O)(=O)c1ccccc1[N+](=O)[O-] | – | – | inactive
O=C(Nc1cccc2c(OC(=O)C(Cl)Cl)c(N=Nc3ccc(S(=O)(=O)Nc4nccs4)cc3)cc(N=Nc3ccc(S(=O)(=O)Nc4nccs4)cc3)c12)C(Cl)Cl (tested in a mixture with another compound) | 46.8 µM and > 50.1 µM | – | inactive
CNC(=O)C1(C#N)C(c2ccccc2)C(C#N)(C(=O)NC)C1c1ccccc1 (stereo not drawn) | > 200 µM | 166 | –
O=c1[nH][nH]c(=O)n1CCCCCCn1c(=O)[nH][nH]c1=O | > 200 µM | > 200 | –
CC1C2=C(CC(C)(C)CC2=O)NC2=C1C(=O)CC(C)(C)C2 | > 200 µM | 166 | –
O=C(c1ccco1)N(C(=S)N1CCN(c2ccccc2)CC1)C1CCCCC1 | > 18.2 µM | 12.6 | –
CC(C(N)=O)N(C)C(=O)c1cnc2ccccc2c1 (stereo not drawn) | – | – | inactive
S=C(NC/C(Br)=C/Br)Nc1cccc2ccccc12 | > 200 µM | 36.3 | –
O=C(NCCCCCCO)c1cccc2cc3ccccc3nc12 | > 200 µM | 18.6 | –
CC(C)(C)[Si](C)(C)OC1CCOC1(O)c1ccccn1 (stereo not drawn) | > 200 µM | 66.1 | –
S=C1CC(N2CCCC2)=Nc2ccccc2N1 | > 200 µM | > 200 | –
O=c1oc2ccccc2c(O)c1C=NC(=S)c1ccncc1 | > 200 µM | 182 | –
O=C(CCCl)Nc1c(Cl)cccc1Cl | – | – | inactive

— PubChem BioAssay AID179 (DTP/NCI, 2004)
